The target in one experiment is T1, PknB (Mycobacterium tuberculosis, UniProt P9WI81).
T1 construct: made in house
Description: biochemical. More on the design: species or system M. tuberculosis. The conditions noted are these: 3 nM PknB, 6 uM GarA, 3 μM ATP, 30 min; competitive tight-binding fit; several symbols in a cell = repeat determinations; read-out: Ki Values.

The test system of experiment [1] is Mycobacterium tuberculosis H37Ra. Briefly: Mycobacterium tuberculosis growth inhibition assay (microtiter dilution, resazurin reduction). It is filed as cell-based. Particulars: 7H9 broth, 9 days + 24 h resazurin, lowest concentration inhibiting resazurin reduction by >70%, several symbols in a cell = repeat determinations. In a few lines: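 M. tuberculosis H37Ra at ~1×10^6 cells/mL in 7H9 broth plus 10% ADC, exposed to 2-fold serial dilutions (7 or 11 steps) at 37 °C for 9 days. Resazurin then added, fluorescence (492/595 nm) read at baseline and after 24 h; MIC = lowest concentration inhibiting resazurin reduction >70% versus DMSO.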

T1 sequence (P9WI81 whole entry): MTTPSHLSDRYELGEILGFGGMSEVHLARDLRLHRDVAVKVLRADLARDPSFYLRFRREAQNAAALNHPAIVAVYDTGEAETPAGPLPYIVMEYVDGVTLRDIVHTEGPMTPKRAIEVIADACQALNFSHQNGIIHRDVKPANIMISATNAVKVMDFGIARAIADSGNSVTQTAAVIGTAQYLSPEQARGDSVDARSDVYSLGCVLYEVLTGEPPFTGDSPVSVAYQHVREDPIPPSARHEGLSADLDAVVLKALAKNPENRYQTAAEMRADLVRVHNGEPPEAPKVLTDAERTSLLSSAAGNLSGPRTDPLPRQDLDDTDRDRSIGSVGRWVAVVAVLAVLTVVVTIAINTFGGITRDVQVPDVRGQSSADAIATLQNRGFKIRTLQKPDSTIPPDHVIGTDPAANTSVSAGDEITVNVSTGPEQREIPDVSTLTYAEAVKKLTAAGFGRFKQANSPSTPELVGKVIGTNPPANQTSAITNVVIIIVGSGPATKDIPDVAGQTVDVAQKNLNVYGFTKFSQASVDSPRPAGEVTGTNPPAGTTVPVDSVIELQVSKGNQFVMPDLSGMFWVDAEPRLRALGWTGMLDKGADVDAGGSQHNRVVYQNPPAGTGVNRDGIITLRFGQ

In the case of `Nc1cc(Nc2cc(C3CC3)n[nH]2)nc(-c2ccc(S(N)(=O)=O)s2)n1` [Compound 294, 5-[4-amino-6-[(5-cyclopropyl-2H-pyrazol-3-yl)amino]-pyrimidin-2-yl]thiophene-2-sulfonamide], the Ki on PknB lay within 2000 to 4000 nM. In addition, the MIC values entry in experiment [1] was “B+”.
As for `CC(C)(C)NS(=O)(=O)c1ccc(-c2nccc(Nc3cc(C4CC4)[nH]n3)n2)cn1` [Compound 300, 5-[4-[(5-cyclopropyl-1H-pyrazol-3-yl)amino]pyrimidin-2-yl]-N-tert-butyl-pyridine-2-sulfonamide], on PknB, the Ki was 50 to 100 nM. The MIC values result in experiment [1] is “B+”.
As for `NS(=O)(=O)c1ccc(-c2nccc(Nc3cc(C4CC4)[nH]n3)n2)cn1` [Compound 301, 5-[4-[(5-cyclopropyl-1H-pyrazol-3-yl)amino]pyrimidin-2-yl]pyridine-2-sulfonamide], on PknB, the Ki is 50 to 100 nM. In addition, in experiment [1], the MIC values entry is “B+”.
As to `NC(=O)c1ncc(Cl)c(Nc2cc(C3CC3)[nH]n2)n1` [Compound 303, 5-chloro-4-[(5-cyclopropyl-1H-pyrazol-3-yl)amino]-pyrimidine-2-carboxamide], the Ki on PknB fell in the range of 2000 to 4000 nM. Moreover, the MIC values result in experiment [1] is recorded as “B+”.
With `NC(=S)c1ncc(Cl)c(Nc2cc(C3CC3)[nH]n2)n1` [Compound 305, 5-chloro-4-[(5-cyclopropyl-1H-pyrazol-3-yl)amino]-pyrimidine-2-carbothioamide], the inhibition constant Ki at PknB fell in the range of 500 to 1000 nM. For the same compound, the MIC values result in experiment [1] is “A, B++”.
In the case of `O=S(=O)(O)c1ccc(-c2ncc(Cl)c(Nc3cc(C4CC4)[nH]n3)n2)s1` [Compound 306, 5-[5-chloro-4-[(5-cyclopropyl-1H-pyrazol-3-yl)amino]-pyrimidin-2-yl]thiophene-2-sulfonic acid], the Ki on PknB fell in the range of 10 to 50 nM. In experiment [1], the MIC values entry was “B+”.
With `O=S(=O)(c1ccc(-c2ncc(Cl)c(Nc3cc(C4CC4)[nH]n3)n2)s1)n1cccc1` [Compound 307, 5-chloro-N-(5-cyclopropyl-1H-pyrazol-3-yl)-2-(5-pyrrol-1-ylsulfonyl-2-thienyl)-pyrimidin-4-amine], the Ki at PknB lay within 10 to 50 nM. Also, the MIC values result in experiment [1] is given as “B+”.
As to `CC(=O)c1ccc(-c2nccc(Nc3cc(C4CC4)[nH]n3)n2)cc1` [Compound 308, 1-[4-[4-[(5-cyclopropyl-1H-pyrazol-3-yl)amino]pyrimidin-2-yl]phenyl]ethanone], the Ki at PknB lay within 10 to 50 nM. Besides, in experiment [1], the MIC values entry was “B+”.
In the same order, the values of `CC(O)c1ccc(-c2nccc(Nc3cc(C4CC4)[nH]n3)n2)cc1` (stereo not shown) [Compound 312, 1-[4-[4-[(5-cyclopropyl-1H-pyrazol-3-yl)amino]pyrimidin-2-yl]phenyl]ethanol] are 10 to 50 nM and “B+”.
In the same order, the values of `CC(=O)OCCc1cnc(-c2ccc(S(N)(=O)=O)s2)nc1Nc1cc(C2CC2)[nH]n1` [Compound 313, 2-(4-(5-cyclopropyl-1H-pyrazol-3-ylamino)-2-(5-sulfamoylthiophen-2-yl)pyrimidin-5-yl)ethyl acetate] are 10 to 50 nM and “A+”.
In the same order, the values of `CC(O)c1cccc(-c2nccc(Nc3cc(C4CC4)[nH]n3)n2)c1` (stereo not shown) [Compound 316, 1-[3-[4-[(5-cyclopropyl-1H-pyrazol-3-yl)amino]pyrimidin-2-yl]phenyl]ethanol] are 10 to 50 nM and “B+”.
`CC(=O)c1cccc(-c2nccc(Nc3cc(C4CC4)[nH]n3)n2)c1` [Compound 317, 1-[3-[4-[(5-cyclopropyl-1H-pyrazol-3-yl)amino]pyrimidin-2-yl]phenyl]ethanone]: the Ki on PknB is 10 to 50 nM. In addition, in experiment [1], the MIC values result was “B+”.
With `Cc1cc(-c2ccc(S(N)(=O)=O)s2)nc(Nc2cc(C3CC3)n[nH]2)n1` [Compound 322, 5-[2-[(5-cyclopropyl-2H-pyrazol-3-yl)amino]-6-methyl-pyrimidin-4-yl]thiophene-2-sulfonamide], the Ki at PknB fell in the range of 1 to 10 nM. In experiment [1], the MIC values entry is “B++”.
In the same order, the values of `NS(=O)(=O)c1ccc(-c2nccc(Nc3cc(C4CC4)[nH]n3)n2)cc1` [Compound 323, 4-[4-[(5-cyclopropyl-1H-pyrazol-3-yl)amino]pyrimidin-2-yl]benzenesulfonamide] are 10 to 50 nM and “B++”.

The record behind these values is patent US20110053916A1 (Vertex Pharmaceuticals Incorporated, priority 2009, published 2011).
